Experimental data published in US7282522B2, “Hydroxamic acid derivatives and the method for preparing thereof” (Amorepacific Corporation, priority 2003, dated 2007).

Tests used:
procollagen type I = experiment: Effect on collagen biosynthesis (procollagen type I ELISA) in human fibroblasts; assay type: cell-based; settings: 10^−4M, 24 hours, serum-free medium, relative to control group = 100
Method: Human fibroblasts were seeded into 24-well plate at 1×10^5 cells per well and then cultured to 90% of growth.
For each supernatant, procollagen production was measured with procollagen type I ELISA kit.

collagenase = experiment: Inhibition of collagenase expression in human fibroblasts (ELISA kit); assay type: cell-based; settings: 10^−4M, 24 hours, serum-free medium, relative to control group = 100
Method: Human fibroblasts were seeded into 96-well microtiter plate at 5,000 cells per well and then cultured to 90% of growth in DMEM (Dulbecco's Modified Eagle's Media) supplemented with 2.5% fetal bovine serum. Then, the fibroblastes were cultured in serum-free DMEM for 24 hours and treated for 24 hours with 10^−4M of hydroxamic acid derivatives of Examples 1˜55, retinol or retinoic acid in serum-free medium, and then the culture fluid was collected.
(§1) For each culture fluid, collagenase production was measured with collagenase kit (commercialized by AmershamPharmacia Biotech). Firstly, the culture fluid was added to 96-well plate spread with primary collagenase antibody and then antigen-antibody reaction was performed in an incubator for 3 hours. Later, chromophore-conjugated secondary antibody was added to the 96-well plate and then reacted for 15 minutes. Then, color former was added thereto, to induce development at room temperature for 15 minutes. 1M of sulfuric acid was added to stop the reaction. […] The color density depends on the progress of the reaction. The absorbance of the yellow 96-well plate was measured at 405 nm using absorptiometer. Collagenase expression was calculated by the following equation 1. Herein, the absorbance of the culture fluid collected from the medium with no material treated was used as a control. Collagenase expression (%)=(Absorbance of test group with said material treated/Absorbance of control group with no material treated)×100 [Equation 1]
Collagenase expression was evaluated as a relative value, in consideration that the value of control group with no material treated is 100.

elastase = experiment: Inhibition of elastase expression in human fibroblasts (ELISA kit); assay type: cell-based; settings: 10^−4M, 24 hours, serum-free medium, relative to control group = 100
Method: as §1, with “elastase” for “collagenase”, “Elastase” for “Collagenase”, “2.” for “1.”, “2]” for “1]”
Elastase expression was evaluated as a relative value, in consideration that the value of control group with no material treated is 100.

RARα = target: T1, RARα (Homo sapiens, UniProt P10276); experiment: RARE-luciferase reporter assay in transfected CV-1 cells (affinity to retinoic acid receptor), RARα; assay type: cell-based; settings: treated 24 hours at final concentration 10^−4M, control group 1000
T1 construct: expressed in transfected cells; host or cells: CV-1 cells (ATCC)
T1 sequence (P10276 1-462): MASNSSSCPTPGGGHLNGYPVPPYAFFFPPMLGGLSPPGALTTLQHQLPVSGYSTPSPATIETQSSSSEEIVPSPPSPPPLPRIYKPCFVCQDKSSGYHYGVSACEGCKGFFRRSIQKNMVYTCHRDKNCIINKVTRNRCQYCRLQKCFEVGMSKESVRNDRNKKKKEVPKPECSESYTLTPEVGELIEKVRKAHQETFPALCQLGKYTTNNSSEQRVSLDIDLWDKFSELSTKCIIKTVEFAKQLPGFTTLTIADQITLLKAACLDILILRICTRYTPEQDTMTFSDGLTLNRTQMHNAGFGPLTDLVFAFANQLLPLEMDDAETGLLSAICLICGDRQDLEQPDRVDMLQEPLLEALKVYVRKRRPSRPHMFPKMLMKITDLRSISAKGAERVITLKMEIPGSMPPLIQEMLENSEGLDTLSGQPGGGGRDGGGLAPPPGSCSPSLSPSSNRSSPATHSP
Source text: This example illustrates affinities of hydroxamic acid derivatives obtained in Examples 1 to 55 to retinoic acid receptor, in comparison with retinol and retinoic acid.
(§2) Receptor-expression plasmid, pECE-RARα and pECE-RARγ were engineered by the prior method (Mol. Cell. Biol. 1996, 16, 1138-1149). RARE-tk-Luc, i.e. RARE reporter was obtained by inserting RARE fragment from b-RARE-tk-CAT into pGL3 luciferase basic vector. CV-1 cells were obtained from ATCC (American Type Culture Collection).
CV-1 cells were seeded into 96-well microtiter plate at 5,000 cells per well and cultured in DMEM (Dulbecco's Modified Eagle's Media) supplemented with 2.5% fetal bovine serum. 24 Hours later, the cells were transfected with 10 ng of pECE-RARα, long of pECE-RARγ, 100 ng of reporter plasmid and 100 ng of β-galactosidase-expression vector, using LipofectaminPlus (GIBCO BRL, grand island, N.Y.). 24 Hours post-transfection, the cells were treated for 24 hours with hydroxamic acid derivatives of Examples 1˜55 or retinol at a final concentration of 10^−4M or with retinoic acid at a final concentration of 10^−5M, which is 10 times lower concentration than those of the former.

white guinea pigs = experiment: Phototoxicity test (UVA irradiation); settings: for Evaluation (phototoxicity): 1%(w/v) solution, UVA 15 J/cm^2; for Phototoxic index: 50 μl of 1%(w/v) solution, UVA 320~380 nm 15 J/cm^2, observed 24, 48 and 72 hours
RARγ = target: T2, RARγ (Homo sapiens, UniProt P13631); experiment: RARE-luciferase reporter assay in transfected CV-1 cells (affinity to retinoic acid receptor), RARγ; assay type: cell-based; settings: treated 24 hours at final concentration 10^−4M, control group 5000
T2 construct: expressed in transfected cells; host or cells: CV-1 cells (ATCC)
T2 sequence (P13631 1-454): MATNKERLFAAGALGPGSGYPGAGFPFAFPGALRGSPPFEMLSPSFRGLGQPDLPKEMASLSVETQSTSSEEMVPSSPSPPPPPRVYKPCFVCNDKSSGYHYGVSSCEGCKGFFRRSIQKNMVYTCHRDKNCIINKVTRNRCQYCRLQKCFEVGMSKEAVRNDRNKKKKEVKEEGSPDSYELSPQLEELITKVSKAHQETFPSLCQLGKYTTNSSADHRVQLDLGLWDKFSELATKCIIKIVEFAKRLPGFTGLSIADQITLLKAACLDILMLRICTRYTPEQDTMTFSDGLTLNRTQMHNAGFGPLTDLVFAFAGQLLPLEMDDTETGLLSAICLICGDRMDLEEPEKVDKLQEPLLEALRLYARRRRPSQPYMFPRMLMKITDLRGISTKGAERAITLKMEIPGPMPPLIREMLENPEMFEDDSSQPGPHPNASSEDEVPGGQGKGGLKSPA
Method: as §2
CV-1 cells were seeded into 96-well microtiter plate at 5,000 cells per well and cultured in DMEM (Dulbecco's Modified Eagle's Media) supplemented with 2.5% fetal bovine serum. 24 Hours later, the cells were transfected with 10 ng of pECE-RARα, long of pECE-RARγ, 100 ng of reporter plasmid and 100 ng of β-galactosidase-expression vector, using LipofectaminPlus (GIBCO BRL, grand island, N.Y.).

rabbits = experiment: Primary skin irritation test on animals (Draize P.I.I.); settings: depilated back; for P.I.I. (Primary Irritation Index): 0.5 ml of 1% solution in 1,3-butylene glycol:ethanol 7:3, observed 24 or 72 hours later; for Evaluation (skin irritation): 1% solution, according to Draize's P.I.I.

Row | SMILES | Collagen biosynthesis (%) (procollagen type I) | Collagenase expression (%) (collagenase) | Elastase expression (%) (elastase) | Luciferase activity RARα (RARα) | Evaluation (phototoxicity) (white guinea pigs) | Phototoxic index (white guinea pigs) | Luciferase activity RARγ (RARγ) | P.I.I. (Primary Irritation Index) (rabbits) | Evaluation (skin irritation) (rabbits)
1 | CCCCc1ccc(C(=O)N(C)c2ccc(C(=O)NO)cc2)cc1 [Example 18, N-[4-(N-hydroxycarbamoyl)phenyl]-N-methyl-[4-butylphenyl]carboxyamide] | 130 | 78 | 79 | 12900 | No phototoxicity (lower value than 0.5, criterion value to be estimated as no phototoxicity) | 0 | 11400 | 0.321 | No irritation
2 | Cc1ccc(C(=O)N(C)c2ccc(C(=O)NO)cc2)cc1C [Example 20, N-[4-(N-hydroxcarbamoly)phenyl]-N-methyl-[3,4-dimethylphenyl]carboxyamide] | 122 | 68 | 78 | 12200 | No phototoxicity (lower value than 0.5, criterion value to be estimated as no phototoxicity) | 0 | 12300 | 0.421 | No irritation
3 | CN(C(=O)C12CC3CC(CC(C3)C1)C2)c1ccc(C(=O)NO)cc1 [Example 21, N-[4-(N-hydroxycarbamoyl)phenyl]adamantyl-N-methylcarboxyamide] | 118 | 69 | 78 | 12500 | No phototoxicity (lower value than 0.5, criterion value to be estimated as no phototoxicity) | 0 | 11200 | 0.345 | No irritation
4 | CN(O)C(=O)c1ccc(N(C)C(=O)C23CC4CC(CC(C4)C2)C3)cc1 [Example 22, adamantyl-N-[4-(N-hydroxy-N-methylcarbamoyl)phenyl]-N-methylcarboxyamide] | 120 | 77 | 70 | 12100 | No phototoxicity (lower value than 0.5, criterion value to be estimated as no phototoxicity) | 0 | 12400 | 0.350 | No irritation
5 | Cc1ccc(C(=O)Nc2ccc(CC(=O)NO)cc2)cc1 [Example 24, N-[4-(N-hydroxycarbamoylmethyl)phenyl][4-methylphenyl]carboxyamide] | 121 | 76 | 82 | 12100 | No phototoxicity (lower value than 0.5, criterion value to be estimated as no phototoxicity) | 0 | 11210 | 0.321 | No irritation
6 | Cc1cccc(C(=O)Nc2ccc(CC(=O)NO)cc2)c1 [Example 25, N-[4-(N-hydroxycarbamoylmethyl)phenyl][3-methylphenyl]carboxyamide] | 120 | 70 | 80 | 13200 | No phototoxicity (lower value than 0.5, criterion value to be estimated as no phototoxicity) | 0 | 12100 | 0.423 | No irritation
7 | CCc1ccc(C(=O)Nc2ccc(CC(=O)NO)cc2)cc1 [Example 26, N-[4-(N-hydroxycarbamoylmethyl)phenyl][4-ethylphenyl]carboxyamide] | 123 | 78 | 86 | 17500 | No phototoxicity (lower value than 0.5, criterion value to be estimated as no phototoxicity) | 0 | 11200 | 0.321 | No irritation
8 | CCCc1ccc(C(=O)Nc2ccc(CC(=O)NO)cc2)cc1 [Example 27, N-[4-(N-hydroxycarbamoylmethyl)phenyl][4-propylphenyl]carboxyamide] | 112 | 87 | 87 | 13920 | No phototoxicity (lower value than 0.5, criterion value to be estimated as no phototoxicity) | 0 | 11300 | 0.568 | No irritation
